Measurements: patent US5202315A, “Cephalosporin compounds” (Lucky, Ltd., priority 1989, dated 1993)
In brackets after ≈: the same amount, converted by molar mass. Like-named read-outs stand apart in the source and are kept apart here.

Legend:
[1] = test system: Proteus mirabilis ATCC 25933; assay: Antibacterial activity, MIC; format: cell-based; conditions: ATCC25933, ATCC 25933, agar two-fold dilution, 37° C., 20 hours, read-out: MIC
Outline: (§1)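 MIC by two-fold serial dilution in Mueller-Hinton agar; inoculum 2 μl at 10^7 CFU/ml; 37 °C, 20 h.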

[2] = test system: Staphylococcus aureus methicillin resistant; assay: Antibacterial activity against clinically isolated strains, MIC; format: cell-based; conditions: methicillin resistant, 7 clinical isolates, broth microdilution test; for MIC90: read-out: MIC 90%
[3] = In-vivo absorbency (plasma concentrations & pharmacokinetic parameters); set-up: species or system SD rat (male); conditions: plasma, SD male rat, iv 20 mg/kg; for concentration at 1 h: 60 min; for concentration at 1 h / concentration at 2 h: read-out: Plasma Conc.; for concentration at 2 h: 120 min; for AUC / half-life: two compartment model; for half-life: rat, iv, 20 mg/kg
Text: The blood samples from the femoral vein of the rats were taken every hour after administration, and analyzed by bio-assay(agar well method).
Tested animal: SD male Rat (220~340 g)

Pseudomonas = assay: Antibacterial activity; format: cell-based; conditions: statement in words
[4] = test system: Streptococcus faecalis ATCC 29212; assay: Antibacterial activity, MIC; format: cell-based; conditions: Enterococcus faecalis, ATCC29212; ATCC 29212; agar two-fold dilution, 37° C., 20 hours; read-out: MIC
Outline: as §1

Row | SMILES | MIC [1] | MIC50 [2] | MIC90 [2] | concentration at 1 h [3] | concentration at 2 h [3] | AUC [3] | half-life ([3]; read-out: T1/2 (α)) | half-life ([3]; read-out: T1/2 (β)) | antibacterial activities, especially against Pseudomonas (Pseudomonas) | MIC [2] | MIC [4]
1 | C[n+]1c(N)cc(N)nc1SCC1=C(C(=O)[O-])N2C(=O)C(NC(=O)/C(=N\OC(C)(C)C(=O)O)c3csc(N)n3)[C@H]2SC1 (stereo partly shown) [Compound I-1, 7-[(Z)-2-(2-aminothiazol-4-yl)-2-(2-carboxyprop-2-oxyimino)acetamido]-3-(4,6-diamino-1-methylpyrimidinium-2-yl) thiomethyl-3-cephem-4-carboxylate] | 0.031 µg/mL (≈ 0.0497 µM) | > 128 µg/mL | > 128 µg/mL | 7700 ng/mL | 1800 ng/mL | 35300 ng·h/mL | 3 min | 26 min | excellent |  | 
2 | CC[n+]1c(N)cc(N)nc1SCC1=C(C(=O)[O-])N2C(=O)C(NC(=O)/C(=N\OC(C)(C)C(=O)O)c3csc(N)n3)C2SC1 (stereo not shown) [Compound I-2] | 0.031 µg/mL (≈ 0.0486 µM) | > 128 µg/mL | > 128 µg/mL | 2600 ng/mL | 400 ng/mL | 11400 ng·h/mL | 2 min | 23 min |  |  | 
3 | CC(O/N=C(\C(=O)NC1C(=O)N2C(C(=O)[O-])=C(CSc3nc(N)cc(N)[n+]3C)CSC12)c1csc(N)n1)C(=O)O (stereo not shown) [Compound I-4] | 0.031 µg/mL (≈ 0.0508 µM) | > 32 µg/mL | > 32 µg/mL | 2600 ng/mL | 400 ng/mL | 18600 ng·h/mL | 2 min | 26 min |  | > 32 µg/mL | 
4 | CC[n+]1c(N)cc(N)nc1SCC1=C(C(=O)[O-])N2C(=O)C(NC(=O)/C(=N\OC(C)C(=O)O)c3csc(N)n3)C2SC1 (stereo not shown) [Compound I-5] | 0.031 µg/mL (≈ 0.0497 µM) | > 128 µg/mL | > 128 µg/mL | 9700 ng/mL | 3000 ng/mL | 39000 ng·h/mL | 5 min | 36 min |  |  | 
5 | C[n+]1c(N)cc(N)nc1SCC1=C(C(=O)[O-])N2C(=O)C(NC(=O)/C(=N\OCC(=O)O)c3csc(N)n3)C2SC1 (stereo not shown) [Compound I-7] | 0.016 µg/mL (≈ 0.0269 µM) | > 32 µg/mL | > 32 µg/mL | 8100 ng/mL | 1900 ng/mL | 35700 ng·h/mL | 2 min | 26 min |  | > 32 µg/mL | > 128 µg/mL
6 | CCO/N=C(\C(=O)NC1C(=O)N2C(C(=O)[O-])=C(CSc3nc(N)cc(N)[n+]3N)CSC12)c1csc(N)n1 (stereo not shown) [Compound I-16] | 0.13 µg/mL (≈ 0.229 µM) | > 32 µg/mL | > 32 µg/mL | 8800 ng/mL | 1900 ng/mL | 38400 ng·h/mL | 4 min | 24 min |  |  | 32 µg/mL (≈ 56.5 µM)
7 | Cc1c(N)nc(SCC2=C(C(=O)[O-])N3C(=O)C(NC(=O)/C(=N\OC(C)(C)C(=O)O)c4csc(N)n4)C3SC2)[n+](C)c1N (stereo not shown) [Compound I-30] | 0.031 µg/mL (≈ 0.0486 µM) | > 128 µg/mL | > 128 µg/mL | 9600 ng/mL | 2700 ng/mL | 41800 ng·h/mL | 4 min | 30 min |  |  | 
8 | CCC[n+]1c(N)cc(N)nc1SCC1=C(C(=O)[O-])N2C(=O)C(NC(=O)/C(=N\OC(C)C(=O)O)c3csc(N)n3)C2SC1 (stereo not shown) [Compound I-45] | 0.063 µg/mL (≈ 0.0988 µM) | > 128 µg/mL | > 128 µg/mL | 11000 ng/mL | 3600 ng/mL | 42900 ng·h/mL | 4 min | 38 min |  |  | > 128 µg/mL
